From patent US9877945B2 (priority 2013, dated 2018)
Read-outs that look alike come from different tables or passages of the source.

Tested on: Clostridium perfringens strain 56
Details: for Number of birds with macroscopic necrotic enteritis lesions: lesion score 2 or more = positive; for Birds with macroscopic necrotic enteritis lesions, Total (%) (positive chicken in total) / Number of birds with macroscopic necrotic enteritis lesions, total: total of days 21-23
[1] = day 21, product on silica carrier in feed 5 / 2.5 / 2 kg/ton in weeks 1 / 2 / 3 (low conc for monobutyrate)
[2] = day 22, product on silica carrier in feed 5 / 2.5 / 2 kg/ton in weeks 1 / 2 / 3 (low conc for monobutyrate)
[3] = day 23, product on silica carrier in feed 5 / 2.5 / 2 kg/ton in weeks 1 / 2 / 3 (low conc for monobutyrate)
[4] = product on silica carrier in feed 5 / 2.5 / 2 kg/ton in weeks 1 / 2 / 3 (low conc for monobutyrate)
[5] = product on silica carrier in feed at high conc 7.5 / 6 / 5.5 kg/ton in weeks 1 / 2 / 3

SMILES | Number of birds with macroscopic necrotic enteritis lesions [1] | Number of birds with macroscopic necrotic enteritis lesions (day 21, product on silica carrier in feed at high conc 7.5 / 6 / 5.5 kg/ton in weeks 1 / 2 / 3) | Number of birds with macroscopic necrotic enteritis lesions [2] | Number of birds with macroscopic necrotic enteritis lesions (day 22, product on silica carrier in feed at high conc 7.5 / 6 / 5.5 kg/ton in weeks 1 / 2 / 3) | Number of birds with macroscopic necrotic enteritis lesions [3] | Number of birds with macroscopic necrotic enteritis lesions (day 23, product on silica carrier in feed at high conc 7.5 / 6 / 5.5 kg/ton in weeks 1 / 2 / 3) | chickens died during the trial (pen 3: higher concentration in feed (7.5 / 6 / 5.5 kg/ton)) | Birds with macroscopic necrotic enteritis lesions, Total (%) (positive chicken in total) [4] | Number of birds with macroscopic necrotic enteritis lesions, total [4] | Birds with macroscopic necrotic enteritis lesions, Total (%) (positive chicken in total) [5] | Number of birds with macroscopic necrotic enteritis lesions, total [5] | Result in preventing Clostridium perfringens-induced necrotic enteritis compared with glyceryl monobutyrate at either concentration (FIG. 1) (added to the feed, P value <0.05 taken as significant)
CCCC(=O)OCC(O)CO (centres unmarked) [glyceryl monobutyrate] | 5/9 | 4/9 | 3/9 | 5/9 | 2/10 | 3/8 | 2 | 36 | 10/28 | 46 | 12/26 | 
CCCC(=O)OCC(COC(=O)CCC)OC(=O)CCC [glyceryl tributyrate] | 3/9 |  | 2/9 |  | 2/11 |  |  | 24 | 7/29 |  |  | significantly better result
